Source: patent US20010051618A1 (priority 2000, published 2001)

Assays:
[1] = General symptoms in the similar dog experiment (Example 5); assay type: in vivo; conditions: similar experiment with GABA
[2] = system: poriomaniac behavior of dog; assay: Night activity of a demented dog with poriomania, recorded by CCD camera (Example 5); assay type: in vivo
Method: A male Pomeranian of 11 years old was used. The dog was established to have been demented and to have suffered from poriomania. About 200 g of a canned feed for dogs (Maintenance Canned Beef available from Nippon Hills Colgate Company) per day was fed to this animal in two portions in the morning and evening. On the other hand, water was available ad libitum.
The experiment was conducted in the laboratory under controlled conditions of room temperature of about 22° C. The cage (150 cm×90 cm) was illuminated by infrared light and the activity of the experimental animal in the night was detected by a monochrome CCD camera. The traces of activity were recorded on a microcomputer every 10 minutes. The traces were recorded for 2 days before treatment, after the animal was maintained and acclimatized to the conditions, and the records were used as the pre-treatment data. The data recording started at about 18:00 and the activity was recorded for 800 minutes.
The migration time is the time of the migration of the animal during the experiment. The migration length is the distance of migration of the animal during the experiment. The start of poriomaniac behavior was defined as the start of migration came after the quiescent state of not less than 10 minutes and the end of the poriomaniac behavior was defined as the stop of migration which was confirmed to be maintained for […] 10 minutes. One incident of the poriomaniac behavior was defined as the behavior from the start to the end of the aforementioned migration. One episode means one incident of the poriomaniac behavior.

kainate receptor = conditions: rat; Narita et al. 1993; cited from earlier work
[3] = system: rat's running activity in the night; assay: Running-wheel activity in the night after intraperitoneal administration (Example 1); assay type: in vivo; conditions: ip, rats
Method: Rats (Wistar-Imamichi; 7-week-old) were kept in a cage equipped with a running wheel. The animals were kept under such lighting conditions that the lighting was initiated at 7:00 and it was stopped at 19:00, while the animals were allowed to freely eat diet and drink water. They were kept over 3 weeks without subjecting them to any treatment or they were not subjected to any treatment until they sufficiently habituated to the keeping environment or the cage.
These animals were treated by intraperitoneal administration of GABAB receptor agonist, SKF97541, in an amount of 1.0 mg/kg or 0.5 mg/kg at around 18:00. A group of these animals to which physiological saline had separately been administered was used as a control group. Regarding the quantity of running, the counts detected by a sensor equipped with a running wheel were inputted to a computer at intervals of 30 minutes to thus evaluate the accumulated counts in the night, which was defined to be the quantity of acts in the night. Thus, the relative rate of the accumulated count observed for the individual animal was calculated while the accumulated count observed for each animal prior to the treatment was assumed to be 1.

[4] = system: intentional motions of rats; assay: Forced swimming test, strokes by the forelimbs (Example 2); assay type: in vivo, rat; conditions: 0.5 mg/kg intraperitoneal, 30 minutes to 3 hours after administration, versus saline control, FIG. 2
Method: A GABAB receptor agonist, SKF97541, was intraperitoneally administered to rats, which had been kept under the same conditions used in Example 1, in an amount of 0.5 mg/kg and these animals were put in water maintained at a temperature ranging from 35 to 37° C. after 30 minutes to 3 hours from the administration of the […]. […] The rats were forced to swim in the pool to determine the number of strokes by the forelimbs of these animals per 5 minutes. A group of these animals to which physiological saline had separately been administered was used as a control group.

[5] = 150 mg powdered GABA in food at 18:00, post-treatment, 800 minutes recording

## NCCCC(=O)O [GABA, γ-aminobutyric acid]
[1]
  general symptoms: no particular notable events were observed
[2]; 150 mg of GABA
  change in each parameter compared to pre-treatment data: significant decrease
[2]; [5]
  mean duration time of each episode: 0.7 min
  migration length: 44.7 cm
  migration time: 1.4 min
  number of episodes: 2

## C=C(C)[C@H]1CN[C@H](C(=O)O)[C@H]1CC(=O)O [kainate]
Kainate receptor
  induction of running activity: induced

## CP(=O)(O)CCCN [SKF97541, 3-aminopropyl (methyl) phosphinic acid]
[3]; 0.5 mg/kg intraperitoneal at around 18:00, FIG. 1, read-out: inhibitory effect on quantity of running activity in the night, relative to the control group
  inhibition at 0.5 mg/kg: 40 to 60%
[3]; 1.0 mg/kg intraperitoneal at around 18:00, estimated, FIG. 1, read-out: inhibitory effect on quantity of running activity in the night, relative to the control group
  inhibition at 1 mg/kg: ~70%
[4]
  number of strokes by the forelimbs per 5 minutes: not reduced

## O=C1N=c2cc([N+](=O)[O-])c([N+](=O)[O-])cc2=NC1=O [DNQX, 6,7-dinitroquinoxaline-2,3-dione]
Kainate receptor
  inhibition of running activity induced by kainate: inhibited
